# Columns and labels:
# [1] = molecular target: T1, Aedes aegypti OR8 (AaOR8) (Aedes aegypti, UniProt Q16MN0); assay: Activation of mosquito odorant receptor OR8 from Aedes aegypti (AaOR8), FIG. 17A; format: cell-based; settings: molar concentration, read-out: A. agypti OR8 EC50
# T1 sequence (Q16MN0 1-422): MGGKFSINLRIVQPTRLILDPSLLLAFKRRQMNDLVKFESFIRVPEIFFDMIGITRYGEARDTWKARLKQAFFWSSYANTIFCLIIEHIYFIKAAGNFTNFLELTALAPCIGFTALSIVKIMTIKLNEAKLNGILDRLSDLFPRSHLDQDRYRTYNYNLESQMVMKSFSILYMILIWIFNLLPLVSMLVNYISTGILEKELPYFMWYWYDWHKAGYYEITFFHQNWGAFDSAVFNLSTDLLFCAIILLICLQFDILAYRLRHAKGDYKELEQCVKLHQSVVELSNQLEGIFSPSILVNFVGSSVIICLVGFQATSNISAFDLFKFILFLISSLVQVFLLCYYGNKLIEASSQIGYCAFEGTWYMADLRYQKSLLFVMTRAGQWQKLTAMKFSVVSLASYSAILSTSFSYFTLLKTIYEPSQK
# T1 sequence (Q178U6 1-478 partner): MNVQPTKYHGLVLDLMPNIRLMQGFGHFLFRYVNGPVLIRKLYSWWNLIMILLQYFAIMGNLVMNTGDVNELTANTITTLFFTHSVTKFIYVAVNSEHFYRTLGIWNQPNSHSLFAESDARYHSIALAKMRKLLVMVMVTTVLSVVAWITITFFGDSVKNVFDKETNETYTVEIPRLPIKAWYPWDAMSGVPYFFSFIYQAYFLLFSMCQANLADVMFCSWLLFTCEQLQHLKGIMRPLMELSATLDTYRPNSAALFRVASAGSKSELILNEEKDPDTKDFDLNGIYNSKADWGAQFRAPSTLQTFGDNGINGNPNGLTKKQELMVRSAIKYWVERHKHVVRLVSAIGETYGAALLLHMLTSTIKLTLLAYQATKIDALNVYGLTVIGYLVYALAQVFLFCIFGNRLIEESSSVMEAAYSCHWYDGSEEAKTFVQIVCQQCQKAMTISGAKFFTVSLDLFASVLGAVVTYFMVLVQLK
# Excerpt: (§1) FIG. 17B-OR8 is an enantioselective octenol receptor, distinguishing between the (R)-enantiomer, which is the most abundant form in nature, and the(S)-enantiomer.
# (§2) Orco expression, electrophysiology and purification. Supply of Orco-rich membranes will be predicated on the functional validation carried out using the two-electrode voltage clamp of Xenopus oocytes expressing this receptor. Expression and recordation of the pharmacological activity of mosquito odorant receptor complexes (ORx-Orco) in Xenopus oocytes has been studies extensively. This technique to study the agonist activity of Orco agonists (e.g., VUAA1) and antagonists (e.g., octadienal and carvacrol) (as shown in FIG. 4A) or associated with ORx has been achieved. In some cases Orco rather than ORx was used in order to reduce potential pitfalls associated with OR complexes. In some cases, ORx alone is not functional without its co-receptor chaperone. Two types of expression vectors adapted to Xenopus oocyte expression are used. pSP64DV was used to record currents reaching over 1 μA from Orco exposed to VUAA1, indicating high protein levels (FIG. 4B). […] This plasmid functions well in Xenopus oocytes and adds a constitutively fluorescent mKate2 tag on the C-terminus of the protein of interest (here Orco) that can be directly or indirectly (fluorescence immunohistochemistry) detected by confocal scanning laser microscopy. […]
# [2] = system: Toxorhynchites amboinensis OR8 (TaOR8); assay: Activation of mosquito odorant receptor OR8 from Toxorhynchites amboinensis (TaOR8), FIG. 17A; format: cell-based; settings: molar concentration, read-out: T. amboinensis OR8 (TaOR8) EC50
# Excerpt: as §1, §2
# [3] = system: mosquito odorant receptors known as OR8; assay: mosquito odorant receptor OR8 activation and odorant tuning; format: cell-based; settings: FIG. 17A
# Excerpt: (§3) Indeed, any modifications of the double bond saturation, side chain length, chiral center position, or functional substitution of the (R)-1-octen-3-ol chemical structure is sufficient to prevent OR8 from being activated (FIG. 17B).
# These studies established OR8 as a sensitive enantioselective odorant receptor, whose narrow odorant tuning is optimal in the nanomolar range, which is excellent in the field of receptor pharmacology. […] OR8 is the epitome of receptor selectivity, being able to reject any slight modification on the (R)-1-octen-3-ol backbone manifesting in complete activation shutdown (FIG. 17B). At a low concentration the receptor is specific to (R)-1-octen-3-ol (FIG. 17C), which is a desirable property for the purpose of using this receptor to detect early signs of microbial contamination or presence.
# [4] = system: OR8 from Toxorhynchites amboinensis (TaOR8); assay: mosquito odorant receptor 8 activation by odorants (TaOR8); format: cell-based; settings: FIG. 17A
# Excerpt: as §1, §3
# [5] = system: OR8 from Aedes aegypti (AaOR8); assay: mosquito odorant receptor 8 activation by odorants (AaOR8); format: cell-based; settings: FIG. 17A
# Excerpt: as §1, §3
# Aedes aegypti Orco = molecular target: T2, Aedes aegypti Orco (Aedes aegypti, UniProt Q178U6); assay: two-electrode voltage clamp of Xenopus oocytes expressing Orco; format: cell-based; settings: for effect on VUAA1-activated Orco: oocytes expressing Aedes aegypti Orco, 2.10-4 M VUAA1 with equimolar concentration of antagonist
# T2 construct: expressed in transfected cells; host or cells: Xenopus oocytes injected with capped Orco RNA from linearized pSP64DV
# T2 sequence (Q178U6 1-478): T1 sequence (Q178U6 1-478 partner)
# Excerpt: FIG. 4A-Chemical structures of tested compounds. FIG. 4B-Representative current traces of oocytes expressing Aedes aegypti Orco following exposure to 2.10-4 M VUAA1 alone or in combination with equimolar concentrations of the antagonists octadienal and carvacrol. FIG. 4C-Normalized responses of AaegOrco to VUAA1 alone or in combination with octadienal or carvacrol. Odorants effects were statistically significant (one-way ANOVA followed by Tukey's post-test; P<0.0001; mean responses+s.e.m.; VUAA1 alone, n=7; octadienal & carvacrol n=6).
# Orco expression, electrophysiology and purification. Supply of Orco-rich membranes will be predicated on the functional validation carried out using the two-electrode voltage clamp of Xenopus oocytes expressing this receptor. Expression and recordation of the pharmacological activity of mosquito odorant receptor complexes (ORx-Orco) in Xenopus oocytes has been studies extensively. This technique to study the agonist activity of Orco agonists (e.g., VUAA1) and antagonists (e.g., octadienal and carvacrol) (as shown in FIG. 4A) or associated with ORx has been achieved. In some cases Orco rather than ORx was used in order to reduce potential pitfalls associated with OR complexes. In some cases, ORx alone is not functional without its co-receptor chaperone. Two types of expression vectors adapted to Xenopus oocyte expression are used. pSP64DV was used to record currents reaching over 1 μA from Orco exposed to VUAA1, indicating high protein levels (FIG. 4B). Considering the objective to extract Orco-rich membrane fragments less than <50 nm in length, receptor density should be sufficient to ensure that these short fragments contain Orco. To evaluate Orco density, this gene was expressed using the pCMV6-AC-mKate expression vectors (Origene), or other tagged version. This plasmid functions well in Xenopus oocytes and adds a constitutively fluorescent mKate2 tag on the C-terminus of the protein of interest (here Orco) that can be directly or indirectly (fluorescence immunohistochemistry) detected by confocal scanning laser microscopy. […]
# [6] = cited from earlier work
# OR2 = OR2 (Anopheles gambiae, UniProt Q8WTE6); settings: background, based on cell-based assays; cited from earlier work
# OR9/OR10 = settings: background, based on cell-based assays; cited from earlier work
# OR2, sequence (Q8WTE6 whole entry, species assumed): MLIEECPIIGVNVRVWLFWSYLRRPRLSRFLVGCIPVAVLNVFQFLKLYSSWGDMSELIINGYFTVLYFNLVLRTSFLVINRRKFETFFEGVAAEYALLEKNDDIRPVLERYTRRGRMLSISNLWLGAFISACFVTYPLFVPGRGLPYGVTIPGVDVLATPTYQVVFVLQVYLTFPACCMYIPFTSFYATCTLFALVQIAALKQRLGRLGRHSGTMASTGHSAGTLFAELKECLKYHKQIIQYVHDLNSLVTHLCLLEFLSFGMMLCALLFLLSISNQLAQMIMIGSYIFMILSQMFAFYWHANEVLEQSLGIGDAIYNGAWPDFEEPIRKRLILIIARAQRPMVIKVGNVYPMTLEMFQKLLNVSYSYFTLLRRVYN
# OR2, sequence (Q7QCC7 whole entry partner, species assumed): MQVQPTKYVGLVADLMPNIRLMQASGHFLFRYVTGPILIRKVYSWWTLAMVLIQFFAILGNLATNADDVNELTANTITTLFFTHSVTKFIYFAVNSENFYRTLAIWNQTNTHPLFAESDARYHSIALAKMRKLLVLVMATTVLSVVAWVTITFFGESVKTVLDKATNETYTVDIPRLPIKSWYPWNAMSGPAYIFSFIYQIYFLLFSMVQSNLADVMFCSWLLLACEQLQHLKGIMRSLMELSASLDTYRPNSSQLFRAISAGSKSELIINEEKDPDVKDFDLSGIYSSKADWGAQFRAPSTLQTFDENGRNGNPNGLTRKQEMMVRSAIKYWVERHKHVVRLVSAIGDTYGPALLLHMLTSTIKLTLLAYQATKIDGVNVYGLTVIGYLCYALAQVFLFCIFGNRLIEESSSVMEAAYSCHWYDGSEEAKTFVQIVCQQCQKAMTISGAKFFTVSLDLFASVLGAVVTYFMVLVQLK
compound,measurement,setting,value
"C=C[C@H](O)CCCCC [(R)-1-Octen-3-ol, (R)-1-octen-3-ol]",EC50,[1],213 nM
same,EC50,[2],401 nM
C=C[C@H](O)CCCCC [(R)-1-octen-3-ol],concentration range at which OR8 is activated,[3],parts per billion range
same,sensitivity of TaOR8 (activating concentration range),[4],parts per billion range
same,sensitivity of AaOR8 (activating concentration range),[5],parts per billion range
CCc1ccc(NC(=O)CSc2nnc(-c3cccnc3)n2CC)cc1 [VUAA1],currents recorded from Orco exposed to VUAA1,"Aedes aegypti Orco; Xenopus oocytes, pSP64DV expression vector",over 1 μA
Cc1ccc(C(C)C)cc1O [carvacrol],effect on VUAA1-activated Orco,Aedes aegypti Orco,inhibit VUAA1-activated Orco
c1ccc2[nH]ccc2c1 [indole],solubility in water,[6],sparingly soluble
same,concentration range of selective response of OR2,OR2,upper picomolar range
Cc1c[nH]c2ccccc12 [skatole],solubility in water,[6],sparingly soluble
same,concentration range of selective response of OR9/OR10,OR9/OR10,upper picomolar range
octadienal,effect on VUAA1-activated Orco,Aedes aegypti Orco,inhibit VUAA1-activated Orco

# Reference: US12571764B2, “Receptor-based biosensors” (STATE OF ISRAEL, MINISTRY OF AGRICULTURE & RURAL …, priority 2020, dated 2026)
